Like-named read-outs stand apart in the source and are kept apart here. Peptide text beside a SMILES is read from it. * marks the point of attachment. X18 = O=C1C=CC(=O)N1CCOCCOCCOCCOCCOCCOCCCCCCCC(=O)*; Hexanoyl(6-maleimido) = O=C1C=CC(=O)N1CCCCCC(=O)*; X23 = O=C1C=CC(=O)N1CCOCCOCCOCCOCCOCCOCCCCC(=O)*; X41 = O=C1C=CC(=O)N1c1ccc(CCCCCCCCCCCCC(=O)*)cc1; Propanoyl(3-maleimido) = O=C1C=CC(=O)N1CCC(=O)*; X76 = O=C1C=CC(=O)N1CCOCCCCCCCC(=O)*; X77 = O=C1C=CC(=O)N1CCCCCCCCCCC(=O)*; X80 = O=C1C=CC(=O)N1c1ccccc1CCC(=O)*; X1 = O=C1C=CC(=O)N1CCOCCCC(=O)*
Assay: Half-lives and pharmacokinetic parameters of polypeptides vs HM-1
Design: AUC0-∞: concentration or dose not given beside the values
Conditions: in vivo
[1] = read-out: T1/2β (half-life) (converted)

SMILES	AUC(0-inf) [µg·h/mL]	MRT inf [h]	clearance [L/h/kg]	half-life (T1/2β (half-life)) [h]	AUC(0-inf) (read-out: AUC0-∞) [µg·h/mL]	clearance (read-out: CL (converted)) [L/h/kg]	MRT inf (read-out: MRT0-∞) [h]	half-life [1] [h]	AUC0-∞ [mg/L/h]	half-life [h]
CC(C)[C@H](NC(=O)[C@H](C)NC(=O)CNC(=O)[C@H](CCCNC(=N)N)NC(=O)CCN1C(=O)C=CC1=O)C(=O)N[C@@H](CC(=O)O)C(=O)N[C@@H](CCCNC(=N)N)C(=O)N[C@@H](C)C(=O)NCC(=O)NCC(=O)NCC(=O)NCC(=O)N[C@@H](CCCNC(=N)N)C(=O)NCC(=O)N[C@@H](CC(=O)O)C(=O)O [P9] ({Propanoyl(3-maleimido)}-RGAVDRAGGGGRGD-OH; C-terminus assumed)					27.9 ± 6.88	0.0358	50 ± 10.7	34.64 ± 0.3		
CSCC[C@H](NC(=O)[C@H](Cc1c[nH]cn1)NC(=O)[C@H](CCC(N)=O)NC(=O)[C@H](CCCNC(=N)N)NC(=O)CCCCCN1C(=O)C=CC1=O)C(=O)N[C@@H](Cc1ccccc1)C(=O)N[C@@H](CO)C(=O)N[C@@H](Cc1c[nH]c2ccccc12)C(=O)N[C@H](C(=O)N[C@@H](CC(C)C)C(=O)N[C@@H](C)C(=O)N[C@@H](CCCNC(=N)N)C(=O)N[C@@H](CC(N)=O)C(=O)N[C@@H](CC(=O)O)C(=O)N[C@@H](CCC(N)=O)C(=O)N[C@@H](CCC(=O)O)C(=O)N[C@@H](CCC(=O)O)C(=O)N[C@@H](CCCNC(=N)N)C(=O)NCC(=O)N[C@@H](CC(=O)O)C(=O)O)C(C)C [P2] ({Hexanoyl(6-maleimido)}-RQHMFSWVLARNDQEERGD-OH; C-terminus assumed)								35.48 ± 0.3	0.0350 ± 0.0076	
C[C@H](NC(=O)[C@H](CCCNC(=N)N)NC(=O)[C@H](CC(=O)O)NC(=O)[C@H](CCC(=O)O)NC(=O)CNC(=O)[C@H](CCCNC(=N)N)NC(=O)CCCCCN1C(=O)C=CC1=O)C(=O)NCC(=O)NCC(=O)NCC(=O)NCC(=O)N[C@@H](CCCNC(=N)N)C(=O)NCC(=O)N[C@@H](CC(=O)O)C(=O)O [P6] ({Hexanoyl(6-maleimido)}-RGEDRAGGGGRGD-OH; C-terminus assumed)	27.7 ± 7.13	49.6 ± 9.97	0.0361							34.36 ± 0.25

Continued, in another order:

AUC(0-inf) [µg·h/mL]	MRT inf [h]	clearance [L/h/kg]	half-life (T1/2β (half-life)) [h]	AUC(0-inf) (read-out: AUC0-∞) [µg·h/mL]	clearance (read-out: CL (converted)) [L/h/kg]	MRT inf (read-out: MRT0-∞) [h]	half-life [1] [h]	AUC0-∞ [mg/L/h]	SMILES	half-life [h]
29.2 ± 7.65	52.9 ± 12.1	0.0339	36.64 ± 0.27						C[C@H](NC(=O)CNC(=O)[C@H](CCCNC(=N)N)NC(=O)CCCCCCCCCCCCc1ccc(N2C(=O)C=CC2=O)cc1)C(=O)N[C@@H](CC(=O)O)C(=O)N[C@@H](CCCNC(=N)N)C(=O)N[C@@H](C)C(=O)NCC(=O)NCC(=O)NCC(=O)NCC(=O)N[C@@H](CCCNC(=N)N)C(=O)NCC(=O)N[C@@H](CC(=O)O)C(=O)O [X48] (X41-RGADRAGGGGRGD-OH)	
29.1 ± 7.66	52 ± 13.5	0.0344	36.04 ± 0.32						C[C@H](NC(=O)CNC(=O)[C@H](CCCNC(=N)N)NC(=O)CCc1ccccc1N1C(=O)C=CC1=O)C(=O)N[C@@H](CC(=O)O)C(=O)N[C@@H](CCCNC(=N)N)C(=O)N[C@@H](C)C(=O)NCC(=O)NCC(=O)NCC(=O)NCC(=O)N[C@@H](CCCNC(=N)N)C(=O)NCC(=O)N[C@@H](CC(=O)O)C(=O)O [X14] (X80-RGADRAGGGGRGD-OH)	
24.3 ± 8.15	43.5 ± 12.4	0.0412	30.1 ± 0.36						C[C@H](NC(=O)CNC(=O)[C@H](CCCNC(=N)N)NC(=O)CCCCCCCOCCN1C(=O)C=CC1=O)C(=O)N[C@@H](CC(=O)O)C(=O)N[C@@H](CCCNC(=N)N)C(=O)N[C@@H](C)C(=O)NCC(=O)NCC(=O)NCC(=O)NCC(=O)N[C@@H](CCCNC(=N)N)C(=O)NCC(=O)N[C@@H](CC(=O)O)C(=O)O [X55] (X76-RGADRAGGGGRGD-OH)	
33.4 ± 8.45	59.8 ± 10.6	0.0299	41.42 ± 0.31						C[C@H](NC(=O)CNC(=O)[C@H](CCCNC(=N)N)NC(=O)CCCCOCCOCCOCCOCCOCCOCCN1C(=O)C=CC1=O)C(=O)N[C@@H](CC(=O)O)C(=O)N[C@@H](CCCNC(=N)N)C(=O)N[C@@H](C)C(=O)NCC(=O)NCC(=O)NCC(=O)NCC(=O)N[C@@H](CCCNC(=N)N)C(=O)NCC(=O)N[C@@H](CC(=O)O)C(=O)O [X87] (X23-RGADRAGGGGRGD-OH)	
32.5 ± 7.31	58.1 ± 9.42	0.0308	40.28 ± 0.24						C[C@H](NC(=O)CNC(=O)[C@H](CCCNC(=N)N)NC(=O)CCCOCCN1C(=O)C=CC1=O)C(=O)N[C@@H](CC(=O)O)C(=O)N[C@@H](CCCNC(=N)N)C(=O)N[C@@H](C)C(=O)NCC(=O)NCC(=O)NCC(=O)NCC(=O)N[C@@H](CCCNC(=N)N)C(=O)NCC(=O)N[C@@H](CC(=O)O)C(=O)O [X51] (X1-RGADRAGGGGRGD-OH)	
31.2 ± 7.21	55.8 ± 12.9	0.0321	38.64 ± 0.25						C[C@H](NC(=O)CNC(=O)[C@H](CCCNC(=N)N)NC(=O)CCCCCCCCCCN1C(=O)C=CC1=O)C(=O)N[C@@H](CC(=O)O)C(=O)N[C@@H](CCCNC(=N)N)C(=O)N[C@@H](C)C(=O)NCC(=O)NCC(=O)NCC(=O)NCC(=O)N[C@@H](CCCNC(=N)N)C(=O)NCC(=O)N[C@@H](CC(=O)O)C(=O)O [X10] (X77-RGADRAGGGGRGD-OH)	
27.6 ± 8.16	49.3 ± 11.5	0.0363	34.18 ± 0.31						C[C@H](NC(=O)CNC(=O)[C@H](CCCNC(=N)N)NC(=O)CCCCCCCOCCOCCOCCOCCOCCOCCN1C(=O)C=CC1=O)C(=O)N[C@@H](CC(=O)O)C(=O)N[C@@H](CCCNC(=N)N)C(=O)N[C@@H](C)C(=O)NCC(=O)NCC(=O)NCC(=O)NCC(=O)N[C@@H](CCCNC(=N)N)C(=O)NCC(=O)N[C@@H](CC(=O)O)C(=O)O [X90] (X18-RGADRAGGGGRGD-OH)	

Source: patent US20200270309A1, “MALEIMIDE GROUP-MODIFIED ANGIOGENESIS INHIBITOR HM-1 AND USE THEREOF” (NANJING ANJI BIOLOGICAL TECHNOLOGY CO., LTD, priority 2017, published 2020)
